Assay results published in patent US8530507B2, “Use of levo-ornidazole in the preparation of anti-anaerobic bacteria infection drugs” (priority 2005, dated 2013).
≈ marks a conversion by molar mass, not a printed value. Like-named read-outs stand apart in the source and are kept apart here.

Experiments:
[1] = Acute toxicology test, LD50 in mice (Bliss method); format: in vivo; conditions: both sexes, Kunming, mouse, in vivo, read-out: 95% confidence interval (CI) of LD50
Protocol: Kunming mice, half males and half females, with body weights of 18˜22 g, were administered the testing drug solution by injection 8 hours after fasting. The death status of animals was consecutively observed for 14 days after administration.

Veillonella = test: In vitro MIC determination, clinical anaerobic strains; format: cell-based; conditions: 23 clinical strains, GAM broth, 72 hours anaerobic incubation at 35° C.
Protocol: (§1) Experimental strains: isolated from clinical specimens, and species identification were conducted.
(§2) Bacilli preparation: 4˜5 bacteria colonies with same pattern selected from anaerobic GAM plate were inoculated in GAM broth with inoculating loop. The bacteria was incubated at 35° C. under anaerobic condition until a slight turbidity was attained, and adjusted by means of sterilized saline (deoxygenated) so as to attain a turbidity equivalent to the No. 0.5 McFarland turbidity tube, then diluted with GAM broth (at 1:200) for later use.
(§3) MIC (Minimum Inhibitory Concentration) determination: the testing drugs and control drugs were diluted with GAM broth to different concentrations in the test tubes, followed by addition of equal volume of diluted Bacilli (at 1:200), MIC values were read 72 hours after anaerobic incubation at 35° C.

Bacteroides = test: as above; format: cell-based; conditions: 40 clinical strains, GAM broth, 72 hours anaerobic incubation at 35° C.
Protocol: as §1, §2, §3

Clostridium = test: as above; format: cell-based; conditions: 6 clinical strains, GAM broth, 72 hours anaerobic incubation at 35° C.
Protocol: as §1, §2, §3

Peptostreptococcus = test: as above; format: cell-based; conditions: 35 clinical strains, GAM broth, 72 hours anaerobic incubation at 35° C.
Protocol: as §1, §2, §3

Fusobacterium nucleatum = test: as above; format: cell-based; conditions: 11 clinical strains, GAM broth, 72 hours anaerobic incubation at 35° C.
Protocol: as §1, §2, §3

mice = conditions: mouse, in vivo, 40 mg/kg
Protocol: The same volume of 0.9% sodium chloride injection containing propylene glycol was administered in the vehicle control group. 30 minute after drug administration, 40 mg/kg of sodium thiopental was administered to mice by intraperitoneal injection. The time for the loss of righting reflex and the time for the recovery were recorded. The injection volume was 0.2 ml/10 g, the administration rate was 0.2 ml/10 sec.

Cc1ncc([N+](=O)[O-])n1CC(O)CCl (racemic) [racemic ornidazole, ornidazole]
LD50 at 14 days ([1]; intravenous injection): 272 to 346 mg/kg
LD50 at 14 days ([1]; ip, intraperitoneal injection): 1030 to 1210 mg/kg
LD50 at 14 days ([1]; oral gavage): 674 to 878 mg/kg
MIC Range (Veillonella): 2.0~16.0 mg/L
MIC50 (Veillonella; Veillonella, read-out: MIC50): 4 µg/mL (≈ 18.2 µM)
MIC90 (Veillonella; Veillonella, read-out: MIC90): 8 µg/mL (≈ 36.4 µM)
MIC Range (Bacteroides): 2.0~16.0 mg/L
MIC50 (Bacteroides; Bacteroides, read-out: MIC50): 4 µg/mL (≈ 18.2 µM)
MIC90 (Bacteroides; Bacteroides, read-out: MIC90): 8 µg/mL (≈ 36.4 µM)
MIC Range (Clostridium): 1.0~2.0 mg/L
MIC50 (Clostridium; Clostridium, read-out: MIC50): 2 µg/mL (≈ 9.11 µM)
MIC90 (Clostridium; Clostridium, read-out: MIC90): 2 µg/mL (≈ 9.11 µM)
MIC50 (Peptostreptococcus; Peptostreptococcus, read-out: MIC50): 4 µg/mL (≈ 18.2 µM)
MIC90 (Peptostreptococcus; Peptostreptococcus, read-out: MIC90): 8 µg/mL (≈ 36.4 µM)
MIC Range (Fusobacterium nucleatum): 1.0~32.0 mg/L
MIC50 (Fusobacterium nucleatum; Fusobacterium nucleatum, read-out: MIC50): 2 µg/mL (≈ 9.11 µM)
MIC90 (Fusobacterium nucleatum; Fusobacterium nucleatum, read-out: MIC90): 32 µg/mL (≈ 146 µM)
duration of sleeping induced by sodium thiopental, compared with the vehicle control group (mice): significantly extended

Cc1ncc([N+](=O)[O-])n1C[C@H](O)CCl [L-ornidazole, 1-(3-chloro-2-S-(−)-hydroxypropyl)-2-methyl-5-nitroimidazole]
MIC50 (Veillonella): 4.0 µg/mL (≈ 18.2 µM)
MIC90 (Veillonella): 8.0 µg/mL (≈ 36.4 µM)
MIC Range (Veillonella): 2.0~8.0 mg/L
MIC50 (Bacteroides): 4.0 µg/mL (≈ 18.2 µM)
MIC90 (Bacteroides): 8.0 µg/mL (≈ 36.4 µM)
MIC Range (Bacteroides): 20~16.0 mg/L
MIC50 (Clostridium): 2.0 µg/mL (≈ 9.11 µM)
MIC90 (Clostridium): 2.0 µg/mL (≈ 9.11 µM)
MIC Range (Clostridium): 1.0~2.0 mg/L
MIC50 (Peptostreptococcus): 4.0 µg/mL (≈ 18.2 µM)
MIC90 (Peptostreptococcus): 8.0 µg/mL (≈ 36.4 µM)
MIC Range (Peptostreptococcus): 2.0~32.0 mg/L
MIC50 (Fusobacterium nucleatum): 2.0 µg/mL (≈ 9.11 µM)
MIC90 (Fusobacterium nucleatum): 16.0 µg/mL (≈ 72.9 µM)
MIC Range (Fusobacterium nucleatum): 1.0~16.0 mg/L
